Results as given in patent US4137322A, “ML-236B carboxylic acid derivatives and their use as antihyperlipemic agents” (Sankyo Company Limited, priority 1976, dated 1979).
Structures can show the parent of a compound that is named as a salt. Where two headings read alike, the source gives them in different places.

Key:
Acute toxicity in mouse = details: in vivo, ip
Protocol: (§1) Acute toxicity of ML-236B carboxylic acid derivatives (I) was determined in oral and intraperitoneal administration (both as an aqueous suspension).

[1] = tested on: serum cholesterol in rats; test: Lowering activity of blood cholesterol in rats; type: in vivo, rat; details: for inhibition in vivo at 5 mg/kg / inhibition in vivo at 20 mg/kg: Rattus norvegicus, po, 18 h, read-out: Lowering rate of serum cholesterol
Protocol: A lowering activity of blood cholesterol in rats was assayed on rats. The test was to orally administer a test sample suspended in water, collect a blood sample after 18 hours and determine a cholesterol level in serum by a conventional method.

[2] = molecular target: T1, 3-hydroxy-3-methylglutaryl-CoA reductase (Rattus norvegicus, UniProt P51639); test: Inhibition of 3-hydroxy-3-methylglutaryl-CoA reductase; type: biochemical
T1 construct: Employed as an enzyme microsome of rat liver; from tissue; host or cells: rat liver microsomes
T1 sequence (P51639 1-887): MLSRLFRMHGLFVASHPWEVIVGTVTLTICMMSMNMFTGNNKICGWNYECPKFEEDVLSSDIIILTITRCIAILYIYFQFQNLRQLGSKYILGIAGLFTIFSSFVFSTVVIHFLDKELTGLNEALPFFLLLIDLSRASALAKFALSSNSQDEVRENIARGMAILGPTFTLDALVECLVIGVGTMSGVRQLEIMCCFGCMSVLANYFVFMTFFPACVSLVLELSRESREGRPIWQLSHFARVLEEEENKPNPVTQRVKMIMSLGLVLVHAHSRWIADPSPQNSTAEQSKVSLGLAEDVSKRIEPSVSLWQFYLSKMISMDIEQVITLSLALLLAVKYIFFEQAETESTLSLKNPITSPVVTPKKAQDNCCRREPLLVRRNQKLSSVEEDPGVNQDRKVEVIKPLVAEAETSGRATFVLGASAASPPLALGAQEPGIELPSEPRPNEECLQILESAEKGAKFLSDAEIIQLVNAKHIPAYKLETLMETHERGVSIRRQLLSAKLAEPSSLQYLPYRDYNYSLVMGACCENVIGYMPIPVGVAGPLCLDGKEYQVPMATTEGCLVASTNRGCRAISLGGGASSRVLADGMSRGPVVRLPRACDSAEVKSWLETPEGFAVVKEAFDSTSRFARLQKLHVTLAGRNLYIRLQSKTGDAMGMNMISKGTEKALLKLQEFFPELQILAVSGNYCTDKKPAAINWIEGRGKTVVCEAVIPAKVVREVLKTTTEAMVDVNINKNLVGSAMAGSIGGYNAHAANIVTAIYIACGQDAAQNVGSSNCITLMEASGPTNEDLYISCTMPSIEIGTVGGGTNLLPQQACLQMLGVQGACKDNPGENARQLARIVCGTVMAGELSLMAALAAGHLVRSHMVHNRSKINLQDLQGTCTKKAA
Text: Inhibition activity of cholesterol biosynthesis [determined according to the method disclosed in J. Biol. Chem., 234, 2835 (1959)] and inhibition activity on 3-hydroxy-3-methylglutaryl-CoA reductase [determined according to the method disclosed in Anal. Biochem., 31, 383 (1969)] of these compounds are summarized in Table 1.
*Employed as an enzyme microsome of rat liver.

Acute toxicity in rat = details: in vivo, po
Protocol: as §1

cholesterol biosynthesis = test: Inhibition of cholesterol biosynthesis; type: biochemical
[3] = tested on: total serum cholesterol in beagle dogs; test: Lowering activity of blood cholesterol in beagle dogs; type: in vivo, beagle dog; details: for inhibition in vivo at 25 mg/kg/day / inhibition in vivo at 100 mg/kg/day: Canis lupus familiaris, po, 120 h, read-out: Lowering rate of total serum cholesterol
Text: The test was to orally administer an encapsulated test sample twice per day, in the morning (9 o'clock) and evening (16 o'clock), for continuous 5 days, collect a blood sample in the morning after 5 days and determine a total cholesterol level in serum by a conventional method.

Mouse = test: Acute toxicity in mouse; details: aqueous suspension
Protocol: as §1

Rat = test: Acute toxicity in rat; details: aqueous suspension
Protocol: as §1

[4] = LD50, mouse, aqueous suspension
[5] = rats, 5 mg/kg, oral, after 18 hours
[6] = rats, 20 mg/kg, oral, after 18 hours
[7] = enzyme: microsome of rat liver, read-out: Concentration to inhibit 50% of 3-hydroxy-3-methylglutaryl-CoA reductase (converted)
[8] = beagle dogs, 25 mg/kg/day, oral twice per day, 5 days
[9] = beagle dogs, 100 mg/kg/day, oral twice per day, 5 days
[10] = rats, 5 mg/kg, oral, after 18 hours, 5 mg/kg
[11] = rats, 20 mg/kg, oral, after 18 hours, 20 mg/kg

Row | SMILES | LD50 (Acute toxicity in mouse; [4]) | inhibition in vivo at 5 mg/kg [1, 5] | inhibition in vivo at 20 mg/kg [1, 6] | IC50 [2, 7] | LD50 (Acute toxicity in rat; LD50, rat, aqueous suspension) | Concentration to inhibit 50% of cholesterol biosynthesis (cholesterol biosynthesis) | inhibition in vivo at 25 mg/kg/day [3, 8] | inhibition in vivo at 100 mg/kg/day [3, 9] | also measured
1 | CCCCOC(=O)CC(O)CC(O)CCC1C(C)C=CC2=CCCC(OC(=O)C(C)CC)C21 (centres unmarked) [n-butyl, n-Butyl ML-236B carboxylate] | > 500 mg/kg | 20% | 26% | 344 nM | > 2000 mg/kg | 0.02 µg/mL | 32% | 46% | 
2 | CCC(C)C(=O)OC1CCC=C2C=CC(C)C(CCC(O)CC(O)CC(=O)OCc3ccc(OC)cc3)C21 (centres unmarked) [4-methoxybenzyl, 4-Methoxybenzyl ML-236B carboxylate] |  |  |  |  |  | 0.01 µg/mL |  |  | LD50 (Acute toxicity in mouse): > 500 mg/kg; inhibition in vivo at 5 mg/kg [1]: 17%; inhibition in vivo at 20 mg/kg [1]: 20%; IC50 [2]: 378 nM; LD50 (Acute toxicity in rat): > 2000 mg/kg; inhibition in vivo at 25 mg/kg/day [3]: 26%; inhibition in vivo at 100 mg/kg/day [3]: 36%
3 | CCCCCCOC(=O)CC(O)CC(O)CCC1C(C)C=CC2=CCCC(OC(=O)C(C)CC)C21 (centres unmarked) [n-hexyl, Hexyl ML-236B carboxylate] | > 500 mg/kg | 14% | 23% | 365 nM | > 2000 mg/kg | 0.02 µg/mL | 17% | 29% | 
4 | CCC(C)C(=O)OC1CCC=C2C=CC(C)C(CCC(O)CC(O)CC(=O)OCc3ccc(C)cc3)C21 (centres unmarked) [4-methylbenzyl, 4-Methylbenzyl ML-236B carboxylate] | > 500 mg/kg | 13% | 26% | 390 nM | > 2000 mg/kg | 0.01 µg/mL | 30% | 41% | 
5 | CCC(C)C(=O)OC1CCC=C2C=CC(C)C(CCC(O)CC(O)CC(=O)OCc3ccccc3)C21 (centres unmarked) [benzyl, Benzyl ML-236B carboxylate] | > 500 mg/kg | 14% | 24% | 401 nM | > 2000 mg/kg | 0.01 µg/mL | 24% | 38% | 
6 | CCC(C)C(=O)OC1CCC=C2C=CC(C)C(CCC(O)CC(O)CC(=O)OCC(=O)c3ccc(Br)cc3)C21 (centres unmarked) [4-bromophenacyl, 4-Bromophenacyl ML-236B carboxylate] | > 500 mg/kg | 17% | 24% | 330 nM | > 2000 mg/kg | 0.01 µg/mL | 21% | 30% | 
7 | CCC(C)C(=O)OC1CCC=C2C=CC(C)C(CCC(O)CC(O)CC(=O)OC(C)C)C21 (centres unmarked) [isopropyl, Isopropyl ML-236B carboxylate] | > 500 mg/kg | 16% | 25% | 355 nM | > 2000 mg/kg | 0.04 µg/mL | 19% | 30% | 
8 | CCC(C)C(=O)OC1CCC=C2C=CC(C)C(CCC3CC(O)CC(=O)O3)C21 (centres unmarked) [ML-236B] |  | 11.2% | 17.1% | 12300 nM |  | 0.01 µg/mL | < 5% | 19% | 
9 | CCC(C)C(=O)OC1CCC=C2C=CC(C)C(CCC(O)CC(O)CC(=O)O)C21 (centres unmarked) [Al, Aluminum ML-236B carboxylate] |  |  |  |  |  | 0.006 µg/mL |  |  | LD50 (Mouse; i.p.): > 500 mg/kg; LD50 (Mouse; p.o., listed as Al salt): > 2,000 mg/kg; Lowering rate of serum cholesterol [1, 10]: 18.3%; Lowering rate of serum cholesterol [1, 11]: 22.1%; LD50 (Rat; i.p.): > 500 mg/kg; LD50 (Rat; p.o., listed as Al salt): > 2,000 mg/kg; Lowering rate of total serum cholesterol [3, 8]: 26%; Lowering rate of total serum cholesterol [3, 9]: 41%
10 | CCC(C)C(=O)OC1CCC=C2C=CC(C)C(CCC(O)CC(O)CC(=O)OCC(=O)c3ccccc3)C21 (centres unmarked) [phenacyl, Phenacyl ML-236B carboxylate] | > 500 mg/kg | 14% | 21% | 380 nM | > 2000 mg/kg | 0.01 µg/mL | 32% | 42% | 
11 | CCC(C)C(=O)OC1CCC=C2C=CC(C)C(CCC(O)CC(O)CC(=O)OC)C21 (centres unmarked) [methyl, Methyl ML-236B carboxylate] |  |  |  |  |  | 0.01 µg/mL |  |  | LD50 (Acute toxicity in mouse): > 500 mg/kg; inhibition in vivo at 5 mg/kg [1]: 18%; inhibition in vivo at 20 mg/kg [1]: 23%; IC50 [2]: 355 nM; LD50 (Acute toxicity in rat): > 2000 mg/kg; inhibition in vivo at 25 mg/kg/day [3]: 12%; inhibition in vivo at 100 mg/kg/day [3]: 26%
12 | CCC(C)C(=O)OC1CCC=C2C=CC(C)C(CCC(O)CC(O)CC(=O)OCC(=O)c3ccc(OC)cc3)C21 (centres unmarked) [4-methoxyphenacyl, 4-Methoxyphenacyl ML-236B carboxylate] | > 500 mg/kg | 14% | 23% | 359 nM | > 2000 mg/kg | 0.01 µg/mL | 26% | 39% | 
13 | CCC(C)C(=O)OC1CCC=C2C=CC(C)C(CCC(O)CC(O)CC(=O)OCc3ccc(Cl)cc3)C21 (centres unmarked) [4-chlorobenzyl, 4-Chlorobenzyl ML-236B carboxylate] | > 500 mg/kg | 15% | 21% | 375 nM | > 2000 mg/kg | 0.01 µg/mL | 20% | 36% | 
14 | CCC(C)C(=O)OC1CCC=C2C=CC(C)C(CCC(O)CC(O)CC(=O)OCC(=O)c3ccc(C)cc3)C21 (centres unmarked) [4-methylphenacyl, 4-Methylphenacyl ML-236B carboxylate] | > 500 mg/kg | 14% | 19% | 370 nM | > 2000 mg/kg | 0.01 µg/mL | 20% | 33% | 
15 | CCC(C)C(=O)OC1CCC=C2C=CC(C)C(CCC(O)CC(O)CC(=O)O)C21 (centres unmarked) [Lysine, Lysine salt of ML-236B carboxylic acid] |  |  |  |  |  | 0.006 µg/mL |  |  | LD50 (Mouse; i.p.): > 500 mg/kg; LD50 (Mouse; p.o.): > 5,000 mg/kg; Lowering rate of serum cholesterol [1, 10]: 16.9%; Lowering rate of serum cholesterol [1, 11]: 23.8%; LD50 (Rat; i.p.): > 500 mg/kg; LD50 (Rat; p.o.): > 5,000 mg/kg; Lowering rate of total serum cholesterol [3, 8]: 24%; Lowering rate of total serum cholesterol [3, 9]: 44%
16 | CCOC(=O)CC(O)CC(O)CCC1C(C)C=CC2=CCCC(OC(=O)C(C)CC)C21 (centres unmarked) [ethyl, Ethyl ML-236B carboxylate] |  |  |  |  |  | 0.01 µg/mL |  |  | LD50 (Acute toxicity in mouse): > 500 mg/kg; inhibition in vivo at 5 mg/kg [1]: 19%; inhibition in vivo at 20 mg/kg [1]: 25%; IC50 [2]: 366 nM; LD50 (Acute toxicity in rat): > 2000 mg/kg; inhibition in vivo at 25 mg/kg/day [3]: 13%; inhibition in vivo at 100 mg/kg/day [3]: 19%
